Measurements: ChEMBL document CHEMBL3393036, “Tetra-substituted pyridinylimidazoles as dual inhibitors of p38α mitogen-activated protein kinase and c-Jun N-terminal kinase 3 for potential treatment of neurodegenerative diseases” (J Med Chem, 2015)

Experiments:
[1] = target: Mitogen-activated protein kinase 10 (Homo sapiens, UniProt P53779); assay: Inhibition of JNK3 (unknown origin) assessed as phosphorylation of ATF-2 by ELISA
[2] = target: Tyrosine-protein kinase ABL1 (Homo sapiens) (UniProt P00519); assay: Inhibition of ABL1 (unknown origin) at 5.5 uM by Caliper Mobility Shift Assay
Chain of Tyrosine-protein kinase ABL1 (Homo sapiens) (P00519 whole entry): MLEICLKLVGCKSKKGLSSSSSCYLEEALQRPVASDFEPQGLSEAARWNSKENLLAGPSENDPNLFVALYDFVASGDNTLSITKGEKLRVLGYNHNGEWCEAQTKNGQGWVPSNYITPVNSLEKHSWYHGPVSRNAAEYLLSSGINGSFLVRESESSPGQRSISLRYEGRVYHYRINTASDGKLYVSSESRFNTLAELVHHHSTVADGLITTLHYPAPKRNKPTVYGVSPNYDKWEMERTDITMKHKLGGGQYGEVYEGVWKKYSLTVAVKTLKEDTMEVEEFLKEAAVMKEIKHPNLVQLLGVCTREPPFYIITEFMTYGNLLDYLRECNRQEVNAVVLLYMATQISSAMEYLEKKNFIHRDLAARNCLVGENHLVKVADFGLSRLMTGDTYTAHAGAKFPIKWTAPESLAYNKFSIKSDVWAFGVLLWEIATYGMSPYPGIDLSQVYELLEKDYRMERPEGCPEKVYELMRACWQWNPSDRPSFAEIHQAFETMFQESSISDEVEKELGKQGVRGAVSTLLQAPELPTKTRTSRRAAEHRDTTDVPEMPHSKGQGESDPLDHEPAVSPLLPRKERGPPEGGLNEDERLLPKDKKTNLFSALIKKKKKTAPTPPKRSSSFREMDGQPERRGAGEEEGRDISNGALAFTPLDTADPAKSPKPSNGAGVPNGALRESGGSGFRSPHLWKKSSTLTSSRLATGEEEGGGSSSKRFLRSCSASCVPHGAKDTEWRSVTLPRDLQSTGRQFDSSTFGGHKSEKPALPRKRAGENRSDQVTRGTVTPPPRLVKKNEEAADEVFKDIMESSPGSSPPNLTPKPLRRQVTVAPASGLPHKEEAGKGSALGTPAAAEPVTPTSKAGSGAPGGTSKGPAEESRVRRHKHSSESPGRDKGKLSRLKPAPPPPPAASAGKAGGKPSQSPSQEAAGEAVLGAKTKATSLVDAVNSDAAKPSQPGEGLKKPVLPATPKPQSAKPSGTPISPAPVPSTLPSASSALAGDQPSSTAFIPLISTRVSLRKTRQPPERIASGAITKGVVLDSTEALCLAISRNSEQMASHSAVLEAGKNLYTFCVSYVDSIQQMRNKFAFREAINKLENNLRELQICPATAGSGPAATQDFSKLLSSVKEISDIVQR

[3] = target: Tyrosine-protein kinase BTK (Homo sapiens) (UniProt Q06187); assay: Inhibition of BTK (unknown origin) at 5.5 uM by Caliper Mobility Shift Assay
Chain of Tyrosine-protein kinase BTK (Homo sapiens) (Q06187 whole entry): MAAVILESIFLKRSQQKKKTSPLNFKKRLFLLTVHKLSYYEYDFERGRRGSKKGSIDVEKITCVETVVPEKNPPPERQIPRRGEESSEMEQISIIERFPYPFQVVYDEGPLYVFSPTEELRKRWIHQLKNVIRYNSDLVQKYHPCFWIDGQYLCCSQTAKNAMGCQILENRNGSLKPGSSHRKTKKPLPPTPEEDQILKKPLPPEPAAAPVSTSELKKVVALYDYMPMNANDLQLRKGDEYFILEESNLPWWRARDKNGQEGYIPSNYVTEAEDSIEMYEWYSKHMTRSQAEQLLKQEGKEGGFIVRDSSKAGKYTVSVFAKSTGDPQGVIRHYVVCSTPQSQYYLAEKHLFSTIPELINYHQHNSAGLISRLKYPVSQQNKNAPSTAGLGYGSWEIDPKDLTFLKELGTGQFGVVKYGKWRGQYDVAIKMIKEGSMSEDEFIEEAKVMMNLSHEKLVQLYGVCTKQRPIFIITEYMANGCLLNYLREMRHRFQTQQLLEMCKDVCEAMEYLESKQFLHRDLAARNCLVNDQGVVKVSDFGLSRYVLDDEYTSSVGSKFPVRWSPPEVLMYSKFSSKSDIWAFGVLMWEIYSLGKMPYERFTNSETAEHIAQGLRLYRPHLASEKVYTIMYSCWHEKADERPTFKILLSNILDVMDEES

Homo sapiens = species on record: Homo sapiens; assay: Inhibition of CDK1B (unknown origin) at 5.5 uM by Caliper Mobility Shift Assay
[4] = target: Cyclin-dependent kinase 4/cyclin D1 (Homo sapiens) (UniProt P11802+P24385); assay: Inhibition of CDK4D1 (unknown origin) at 5.5 uM by Caliper Mobility Shift Assay; assay type: protein-complex assay
[5] = target: Tyrosine-protein kinase CSK (Homo sapiens) (UniProt P41240); assay: Inhibition of CSK (unknown origin) at 5.5 uM by Caliper Mobility Shift Assay
[6] = target: Fibroblast growth factor receptor 2 (Homo sapiens) (UniProt P21802); assay: Inhibition of FGFR2 (unknown origin) at 5.5 uM by Caliper Mobility Shift Assay
Chain of Fibroblast growth factor receptor 2 (Homo sapiens) (P21802 22-821 limits assumed): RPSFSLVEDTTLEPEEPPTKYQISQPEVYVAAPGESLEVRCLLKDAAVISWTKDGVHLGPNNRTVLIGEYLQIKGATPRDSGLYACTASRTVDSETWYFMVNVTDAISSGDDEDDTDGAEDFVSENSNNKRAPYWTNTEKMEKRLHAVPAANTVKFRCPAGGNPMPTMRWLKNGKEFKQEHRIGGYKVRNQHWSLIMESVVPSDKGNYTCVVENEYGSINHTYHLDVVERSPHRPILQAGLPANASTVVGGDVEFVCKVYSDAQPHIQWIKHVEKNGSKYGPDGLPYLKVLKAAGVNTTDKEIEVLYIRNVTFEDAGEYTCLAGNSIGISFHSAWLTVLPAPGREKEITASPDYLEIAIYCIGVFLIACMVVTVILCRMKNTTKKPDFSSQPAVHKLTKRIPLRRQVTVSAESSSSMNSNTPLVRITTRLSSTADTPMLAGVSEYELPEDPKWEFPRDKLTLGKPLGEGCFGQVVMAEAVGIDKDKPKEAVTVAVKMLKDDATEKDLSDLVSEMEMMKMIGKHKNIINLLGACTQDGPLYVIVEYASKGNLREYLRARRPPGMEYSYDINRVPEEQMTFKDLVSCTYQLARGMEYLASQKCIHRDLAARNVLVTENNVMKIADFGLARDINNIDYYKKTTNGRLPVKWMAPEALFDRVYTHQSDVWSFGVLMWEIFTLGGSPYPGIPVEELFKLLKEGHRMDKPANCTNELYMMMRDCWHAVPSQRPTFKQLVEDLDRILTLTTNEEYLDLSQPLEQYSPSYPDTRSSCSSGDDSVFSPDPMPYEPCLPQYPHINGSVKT

[7] = tested on: Fibroblast growth factor receptor 3 (Homo sapiens), P22607 [K650E]; assay: Inhibition of FGFR3 K650E (unknown origin) at 5.5 uM by Caliper Mobility Shift Assay
Chain of Fibroblast growth factor receptor 3 (Homo sapiens), P22607 [K650E] (P22607 whole entry K650E): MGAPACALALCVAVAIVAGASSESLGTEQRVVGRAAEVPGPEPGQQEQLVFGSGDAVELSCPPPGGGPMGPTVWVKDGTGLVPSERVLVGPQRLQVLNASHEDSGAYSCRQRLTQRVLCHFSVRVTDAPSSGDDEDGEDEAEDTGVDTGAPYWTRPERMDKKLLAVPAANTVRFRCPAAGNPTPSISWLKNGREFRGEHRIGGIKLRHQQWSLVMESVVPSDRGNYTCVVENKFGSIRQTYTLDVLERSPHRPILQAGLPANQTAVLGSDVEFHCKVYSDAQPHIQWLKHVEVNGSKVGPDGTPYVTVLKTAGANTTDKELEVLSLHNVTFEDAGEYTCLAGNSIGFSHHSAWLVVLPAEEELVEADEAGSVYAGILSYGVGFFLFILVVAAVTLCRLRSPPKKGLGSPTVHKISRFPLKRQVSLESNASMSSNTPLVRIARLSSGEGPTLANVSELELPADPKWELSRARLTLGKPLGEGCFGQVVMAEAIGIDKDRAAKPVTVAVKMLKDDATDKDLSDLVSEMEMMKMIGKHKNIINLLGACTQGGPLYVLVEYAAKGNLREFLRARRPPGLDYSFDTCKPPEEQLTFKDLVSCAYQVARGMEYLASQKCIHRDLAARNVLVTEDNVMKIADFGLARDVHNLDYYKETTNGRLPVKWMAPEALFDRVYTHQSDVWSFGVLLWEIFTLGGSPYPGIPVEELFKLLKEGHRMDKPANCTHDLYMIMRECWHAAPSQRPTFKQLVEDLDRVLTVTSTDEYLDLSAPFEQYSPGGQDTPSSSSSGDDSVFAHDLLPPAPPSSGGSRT

[8] = target: Receptor-type tyrosine-protein kinase FLT3 (Homo sapiens) (UniProt P36888); assay: Inhibition of FLT3 (unknown origin) at 5.5 uM by Caliper Mobility Shift Assay
[9] = target: T1, Interleukin-1 receptor-associated kinase 4 (Homo sapiens) (UniProt Q9NWZ3); assay: Inhibition of IRAK4 (unknown origin) at 5.5 uM by Caliper Mobility Shift Assay
T1 sequence (whole entry): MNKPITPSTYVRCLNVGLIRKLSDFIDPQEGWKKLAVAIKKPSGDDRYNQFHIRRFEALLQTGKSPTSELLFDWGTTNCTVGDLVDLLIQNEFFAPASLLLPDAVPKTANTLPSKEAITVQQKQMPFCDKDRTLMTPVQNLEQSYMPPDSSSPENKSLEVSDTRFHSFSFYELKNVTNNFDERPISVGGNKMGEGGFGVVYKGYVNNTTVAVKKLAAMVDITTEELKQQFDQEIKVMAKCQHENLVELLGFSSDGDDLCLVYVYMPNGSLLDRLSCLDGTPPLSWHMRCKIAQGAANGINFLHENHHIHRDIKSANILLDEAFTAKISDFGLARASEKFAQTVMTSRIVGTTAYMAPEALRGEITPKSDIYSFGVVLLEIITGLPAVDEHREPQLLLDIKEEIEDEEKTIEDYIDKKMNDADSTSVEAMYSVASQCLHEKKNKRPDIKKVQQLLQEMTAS

[10] = target: Mitogen-activated protein kinase 8 (Homo sapiens) (UniProt P45983); assay: Inhibition of JNK1 (unknown origin) at 5.5 uM by Caliper Mobility Shift Assay
[11] = target: Tyrosine-protein kinase Lyn (Homo sapiens) (UniProt P07948); assay: Inhibition of LYN (unknown origin) at 5.5 uM by Caliper Mobility Shift Assay
Chain of Tyrosine-protein kinase Lyn (Homo sapiens) (P07948 2-512 limits assumed): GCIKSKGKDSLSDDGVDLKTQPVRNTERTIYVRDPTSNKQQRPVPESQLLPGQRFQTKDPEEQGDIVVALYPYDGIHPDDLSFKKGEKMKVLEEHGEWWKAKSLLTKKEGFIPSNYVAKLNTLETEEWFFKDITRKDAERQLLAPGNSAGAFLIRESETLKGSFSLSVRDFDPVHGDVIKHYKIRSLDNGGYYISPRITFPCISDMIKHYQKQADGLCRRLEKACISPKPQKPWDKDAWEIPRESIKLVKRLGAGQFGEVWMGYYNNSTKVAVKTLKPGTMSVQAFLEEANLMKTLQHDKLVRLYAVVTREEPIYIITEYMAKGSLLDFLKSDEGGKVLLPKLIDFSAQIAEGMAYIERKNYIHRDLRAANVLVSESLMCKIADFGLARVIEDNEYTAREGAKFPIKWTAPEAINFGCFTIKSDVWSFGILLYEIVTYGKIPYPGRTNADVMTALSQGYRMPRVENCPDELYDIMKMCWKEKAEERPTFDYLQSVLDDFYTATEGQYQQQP

[12] = target: T2, TGF-beta-activated kinase 1 and MAP3K7-binding protein 1 (Homo sapiens) (UniProt Q15750); assay: Inhibition of MAP3K7-TAB1 (unknown origin) at 5.5 uM by Caliper Mobility Shift Assay
T2 sequence (whole entry): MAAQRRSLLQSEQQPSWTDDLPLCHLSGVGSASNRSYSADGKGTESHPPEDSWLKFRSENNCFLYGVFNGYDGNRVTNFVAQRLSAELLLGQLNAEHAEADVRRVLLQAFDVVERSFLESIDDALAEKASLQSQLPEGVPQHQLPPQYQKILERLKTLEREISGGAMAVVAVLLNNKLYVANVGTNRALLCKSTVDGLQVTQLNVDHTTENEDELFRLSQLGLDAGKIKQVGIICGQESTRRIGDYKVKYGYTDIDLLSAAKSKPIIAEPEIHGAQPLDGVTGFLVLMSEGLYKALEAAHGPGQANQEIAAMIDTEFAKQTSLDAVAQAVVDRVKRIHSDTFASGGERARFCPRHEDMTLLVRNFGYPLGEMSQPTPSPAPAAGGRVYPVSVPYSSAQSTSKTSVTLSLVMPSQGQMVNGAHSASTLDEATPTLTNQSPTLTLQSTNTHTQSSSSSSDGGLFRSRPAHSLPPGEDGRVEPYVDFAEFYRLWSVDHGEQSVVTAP

[13] = target: Mitogen-activated protein kinase 1 (Homo sapiens) (UniProt P28482); assay: Inhibition of MAPK1 (ERK2) (unknown origin) at 5.5 uM by Caliper Mobility Shift Assay
Chain of Mitogen-activated protein kinase 1 (Homo sapiens) (P28482 whole entry): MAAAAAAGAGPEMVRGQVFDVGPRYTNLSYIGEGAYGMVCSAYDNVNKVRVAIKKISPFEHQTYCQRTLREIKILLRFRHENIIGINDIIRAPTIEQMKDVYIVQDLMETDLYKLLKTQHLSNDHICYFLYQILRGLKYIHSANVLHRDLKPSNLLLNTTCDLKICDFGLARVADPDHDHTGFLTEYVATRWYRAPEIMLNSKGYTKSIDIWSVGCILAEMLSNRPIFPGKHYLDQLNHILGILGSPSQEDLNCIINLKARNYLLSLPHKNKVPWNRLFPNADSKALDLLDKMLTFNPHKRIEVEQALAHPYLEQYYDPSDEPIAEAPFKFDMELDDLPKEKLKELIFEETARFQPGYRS

[14] = target: Platelet-derived growth factor receptor alpha (Homo sapiens) (UniProt P16234); assay: Inhibition of PDGFRa (unknown origin) at 5.5 uM by Caliper Mobility Shift Assay
[15] = target: Tyrosine-protein kinase SYK (Homo sapiens) (UniProt P43405); assay: Inhibition of SYK (unknown origin) at 5.5 uM by Caliper Mobility Shift Assay
[16] = target: T3, Tyrosine-protein kinase ZAP-70 (Homo sapiens) (UniProt P43403); assay: Inhibition of ZAP70 (unknown origin) at 5.5 uM by Caliper Mobility Shift Assay
T3 sequence (whole entry): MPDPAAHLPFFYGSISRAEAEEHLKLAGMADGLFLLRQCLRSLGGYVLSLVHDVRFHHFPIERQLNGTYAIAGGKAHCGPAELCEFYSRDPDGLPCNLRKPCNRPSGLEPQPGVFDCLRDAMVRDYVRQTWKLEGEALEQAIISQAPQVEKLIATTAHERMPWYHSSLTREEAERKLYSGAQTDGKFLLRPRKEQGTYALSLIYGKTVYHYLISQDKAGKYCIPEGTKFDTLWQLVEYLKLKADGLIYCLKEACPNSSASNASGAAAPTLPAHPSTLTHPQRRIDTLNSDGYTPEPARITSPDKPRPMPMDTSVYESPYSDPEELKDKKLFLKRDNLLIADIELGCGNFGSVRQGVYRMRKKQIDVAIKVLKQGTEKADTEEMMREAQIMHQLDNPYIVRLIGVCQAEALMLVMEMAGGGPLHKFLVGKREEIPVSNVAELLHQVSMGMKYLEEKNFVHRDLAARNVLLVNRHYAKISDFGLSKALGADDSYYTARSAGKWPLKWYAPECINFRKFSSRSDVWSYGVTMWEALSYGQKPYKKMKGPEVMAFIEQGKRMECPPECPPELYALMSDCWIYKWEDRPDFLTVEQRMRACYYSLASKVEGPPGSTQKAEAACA

Chain of Mitogen-activated protein kinase 10 (P53779 whole entry): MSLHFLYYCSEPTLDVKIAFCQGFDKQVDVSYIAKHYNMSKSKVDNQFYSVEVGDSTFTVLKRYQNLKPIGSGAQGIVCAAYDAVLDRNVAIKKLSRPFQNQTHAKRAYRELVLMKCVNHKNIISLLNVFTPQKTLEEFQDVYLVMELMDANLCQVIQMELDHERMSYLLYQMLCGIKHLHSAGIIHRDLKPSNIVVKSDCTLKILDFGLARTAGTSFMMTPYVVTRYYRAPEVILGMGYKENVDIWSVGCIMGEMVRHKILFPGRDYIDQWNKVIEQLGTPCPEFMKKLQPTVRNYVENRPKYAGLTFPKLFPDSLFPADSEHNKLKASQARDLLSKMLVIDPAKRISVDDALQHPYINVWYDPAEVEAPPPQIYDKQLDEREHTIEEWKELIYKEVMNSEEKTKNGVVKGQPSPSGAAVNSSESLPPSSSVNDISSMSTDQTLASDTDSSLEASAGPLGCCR

Compound	IC50 [1]	inhibition [2]	inhibition [3]	inhibition (Homo sapiens)	inhibition [4]	inhibition [5]	inhibition [6]	inhibition [7]	inhibition [8]	inhibition [9]	inhibition [10]	inhibition [11]	inhibition [12]	inhibition [13]	inhibition [14]	inhibition [15]	inhibition [16]
CC(=O)Nc1cc(-c2c(-c3ccc(F)cc3)nc(S/C=C\C(=O)O)n2CC2CCCO2)ccn1 (racemic)	35 nM	< 50%	< 50%	< 50%	< 50%	< 50%	< 50%	< 50%	< 50%	< 50%	< 50%	< 50%	< 50%	< 50%	< 50%	< 50%	< 50%
COC(Cn1c(SC2CCC(C(=O)O)CC2O)nc(-c2ccc(F)cc2)c1-c1ccnc(NC(C)=O)c1)OC (stereo not given)	2010 nM	< 50%	< 50%	< 50%	< 50%	< 50%	< 50%	< 50%	< 50%	< 50%	< 50%	< 50%	< 50%	< 50%	< 50%	< 50%	< 50%
CC(=O)Nc1cc(-c2c(-c3ccc(F)cc3)nc(S/C=C\C(=O)O)n2C2CC2)ccn1	82 nM	< 50%	< 50%	< 50%	< 50%	< 50%	< 50%	< 50%	< 50%	< 50%	< 50%	< 50%	< 50%	< 50%	< 50%	< 50%	< 50%

The remaining lines, values ahead:

IC50 [1]	inhibition [2]	inhibition [3]	inhibition (Homo sapiens)	inhibition [4]	inhibition [5]	inhibition [6]	inhibition [7]	inhibition [8]	inhibition [9]	inhibition [10]	inhibition [11]	inhibition [12]	inhibition [13]	inhibition [14]	inhibition [15]	inhibition [16]	Compound
133 nM	< 50%	< 50%	< 50%	< 50%	< 50%	< 50%	< 50%	< 50%	< 50%	< 50%	< 50%	< 50%	< 50%	< 50%	< 50%	< 50%	CC(=O)Nc1cc(-c2c(-c3ccc(F)cc3)nc(S/C=C\C(=O)O)n2C2CCCCC2)ccn1
1530 nM	< 50%	< 50%	< 50%	< 50%	< 50%	< 50%	< 50%	< 50%	< 50%	< 50%	< 50%	< 50%	< 50%	< 50%	< 50%	< 50%	CC(=O)Nc1cc(-c2c(-c3ccc(F)cc3)nc(Sc3cccc(I)n3)n2C2CCCCC2)ccn1
